Results on 31 compounds are retold here after patent publication US9469615B2, “Quinoxalines and AZA-quinoxalines as CRTH2 receptor modulators” (Merck Sharp & Dohme Corp., priority 2010, dated 2016).

For the experiment, the target named is T1, hCRTH2 (Homo sapiens, UniProt Q9Y5Y4).
T1 construct: expressed in transfected cells; host or cells: HEK (human embryonic kidney) cells expressing hCRTH2; membrane preparation
T1 sequence (Q9Y5Y4 1-395): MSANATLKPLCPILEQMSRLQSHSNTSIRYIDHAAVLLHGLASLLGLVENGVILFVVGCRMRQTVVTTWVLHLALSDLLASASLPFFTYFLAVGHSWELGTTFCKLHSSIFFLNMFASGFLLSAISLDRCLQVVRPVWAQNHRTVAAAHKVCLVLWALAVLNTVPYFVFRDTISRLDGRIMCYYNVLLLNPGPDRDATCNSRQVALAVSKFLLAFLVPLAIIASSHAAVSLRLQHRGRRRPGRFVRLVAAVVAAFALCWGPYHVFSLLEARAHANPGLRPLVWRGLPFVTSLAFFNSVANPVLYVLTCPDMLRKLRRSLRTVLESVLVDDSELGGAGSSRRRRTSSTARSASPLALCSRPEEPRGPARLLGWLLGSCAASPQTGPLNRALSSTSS
Nature of the experiment: Radioligand binding assay ([3H]PGD2 competition, HEK-hCRTH2 membranes). Conditions: [3H]PGD2 competition, Table B. In a few lines: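 Using membranes of an HEK line stably carrying hCRTH2, ligands were tested against [3H]PGD2 (3.0 nM) in pH 7.4 Tris buffer containing 2 mM MnCl2 and 1 mM EDTA. After one hour at room temperature, filters were washed cold and counted.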
Turning to `O=C(O)CCCCc1nc2cc(C(=O)N[C@@H]3CCOc4cc(F)c(F)cc43)ccc2nc1-c1ccc(F)cc1` [compound 538, (R)-5-(7-((6,7-difluorochroman-4-yl)carbamoyl)-3-(4-fluorophenyl)quinoxalin-2-yl)pentanoic acid], the Ki (in general, a measure of affinity in units of concentration, obtained from inhibition or displacement) fell in the range of 2.1 to 20 nM.

`C[C@@H]1CN(c2ccc(Cl)cc2)CCN1C(=O)c1ccc2nc(-c3ccc(Cl)cc3)c(CCCCC(=O)O)nc2c1` [compound 539, (R)-5-(3-(4-chlorophenyl)-7-(4-(4-chlorophenyl)-2-methylpiperazine-1-carbonyl)quinoxalin-2-yl)pentanoic acid]: the Ki was 2.1 to 20 nM.

The compound `C[C@@H]1CN(c2ccc(Cl)cc2)CCN1C(=O)c1ccc2nc(-c3ccc(F)cc3)c(CCCCC(=O)O)nc2c1` [compound 540, (R)-5-(7-(4-(4-chlorophenyl)-2-methylpiperazine-1-carbonyl)-3-(4-fluorophenyl)quinoxalin-2-yl)pentanoic acid] had a Ki of 2.1 to 20 nM.

In the case of `C[C@H]1CN(c2ccc(Cl)cc2)CCN1C(=O)c1ccc2nc(-c3ccc(Cl)cc3)c(CCCCC(=O)O)nc2c1` [compound 541, (S)-5-(3-(4-chlorophenyl)-7-(4-(4-chlorophenyl)-2-methylpiperazine-1-carbonyl)quinoxalin-2-yl)pentanoic acid], the Ki was in the range of 2.1 to 20 nM.

The compound `C[C@H]1CN(c2ccc(Cl)cc2)CCN1C(=O)c1ccc2nc(-c3ccc(F)cc3)c(CCCCC(=O)O)nc2c1` [compound 542, (S)-5-(7-(4-(4-chlorophenyl)-2-methylpiperazine-1-carbonyl)-3-(4-fluorophenyl)quinoxalin-2-yl)pentanoic acid] returned a Ki of 2.1 to 20 nM.

Compound `O=C(O)Cc1cccc(CCCc2nc3cc(C(=O)N4CCN(c5ccccc5)CC4)ccc3nc2-c2ccc(Cl)cc2)c1` [compound 543, 2-(3-(3-(3-(4-chlorophenyl)-7-(4-phenylpiperazine-1-carbonyl)quinoxalin-2-yl)propyl)phenyl)acetic acid] came in with a Ki of 20.1 to 200 nM.

`CN(Cc1ccc(F)cc1)C(=O)c1ccc2nc(-c3ccc(Cl)cc3)c(CCCc3cccc(CC(=O)O)c3)nc2c1` [compound 544, 2-(3-(3-(3-(4-chlorophenyl)-7-((4-fluorobenzyl) (methyl)carbamoyl)quinoxalin-2-yl)propyl)phenyl)acetic acid] showed a Ki of 20.1 to 200 nM.

`C[C@@H](NC(=O)c1ccc2nc(-c3ccc(Cl)cc3)c(CCCc3cccc(CC(=O)O)c3)nc2c1)c1ccc(F)cc1` [compound 545, (R)-2-(3-(3-(3-(4-chlorophenyl)-7-((1-(4-fluorophenyl)ethyl)carbamoyl)quinoxalin-2-yl)propyl)phenyl)acetic acid]: the Ki lay in the range of 201 to 700 nM.

In the case of `O=C(O)Cc1cccc(CCCc2nc3cc(C(=O)NCc4ccc(Cl)cc4)ccc3nc2-c2ccc(Cl)cc2)c1` [compound 546, 2-(3-(3-(7-((4-chlorobenzyl)carbamoyl)-3-(4-chlorophenyl)quinoxalin-2-yl)propyl)phenyl) acetic acid], the Ki fell in the range of 20.1 to 200 nM.

As to `O=C(N[C@@H]1CCOc2ccccc21)c1ccc2nc(-c3ccc(F)cc3)c(CCCC(F)(F)C(=O)O)nc2c1` [compound 547], the Ki was 20.1 to 200 nM.

Turning to `O=C(N[C@H]1CCOc2ccccc21)c1ccc2nc(-c3ccc(F)cc3)c(CCCC(F)(F)C(=O)O)nc2c1` [compound 548, (S)-5-(7-(chroman-4-ylcarbamoyl)-3-(4-fluorophenyl)quinoxalin-2-yl)-2,2-difluoro-pentanoic acid], the Ki fell in the range of 201 to 700 nM.

Take `C[C@H]1CN(c2ccccc2)CCN1C(=O)c1ccc2nc(-c3ccccc3)c(CCCCC(=O)O)nc2c1` [compound 549, (S)-5-(7-(2-methyl-4-phenylpiperazine-l-carbonyl)-3-phenylquinoxalin-2-yl)pentanoic acid]: the Ki is 2.1 to 20 nM.

`C[C@@H]1CN(c2ccc(Cl)cc2)CCN1C(=O)c1ccc2nc(-c3ccccc3)c(CCCCC(=O)O)nc2c1` [compound 550, (R)-5-(7-(4-(4-chlorophenyl)-2-methylpiperazine-1-carbonyl)-3-phenyl-quinoxa1in-2-yl)pentanoic acid] came in with a Ki of 2.1 to 20 nM.

`C[C@H]1CN(c2ccc(Cl)cc2)CCN1C(=O)c1ccc2nc(-c3ccccc3)c(CCCCC(=O)O)nc2c1` [compound 551, (S)-5-(7-(4-(4-chlorophenyl)-2-methylpiperazine-1-carbonyl)-3-phenyl-quinoxalin-2-yl)pentanoic acid] came in with a Ki of 2.1 to 20 nM.

In turn, `O=C(O)CCCCc1nc2cc(C(=O)N3CCN(c4ncccn4)CC3)ccc2nc1-c1ccc(Cl)cc1` [compound 552, 5-(3-(4-chlorophenyl)-7-(4-(pyrimidin-2-yl)piperazine-1-carbonyl)quinoxalin-2-yl)pentanoic acid] had a Ki of 2.1 to 20 nM.

Compound `O=C(O)CCCCc1nc2cc(C(=O)N3CCN(c4ccccc4)C(=O)C3)ccc2nc1-c1ccc(Cl)cc1` [compound 553, 5-(3-(4-chlorophenyl)-7-(3-oxo-4-phenylpiperazine-1-carbonyl)quinoxalin-2-yl)pentanoic acid] displayed a Ki of 2.1 to 20 nM.

The compound `O=C(O)CCCCc1nc2cc(C(=O)N3CCN(c4ccccn4)CC3)ccc2nc1-c1ccc(Cl)cc1` [compound 554, 5-(3-(4-chlorophenyl)-7-(4-(pyridin-2-yl)piperazine-1-carbonyl)quinoxalin-2-yl)pentanoic acid] showed a Ki of 2.1 to 20 nM.

With `O=C(O)CCCCc1nc2cc(C(=O)N3CCN(Cc4ccccc4)CC3)ccc2nc1-c1ccc(Cl)cc1` [compound 555, 5-(7-(4-benzylpiperazine-1-carbonyl)-3-(4-chlorophenyl)quinoxalin-2-yl)pentanoic acid], the inhibition constant (Ki) fell in the range of 2.1 to 20 nM.

`CC1(C)CCC(NC(=O)c2ccc3nc(-c4ccc(Cl)cc4)c(CCCCC(=O)O)nc3c2)c2ccccc21` (stereo not shown) [compound 556] registered a Ki of 2.1 to 20 nM.

The compound `O=C(O)CCCCc1nc2cc(C(=O)N3CCc4cc(F)ccc4C3)ccc2nc1-c1ccc(Cl)cc1` [compound 557, 5-(3-(4-chlorophenyl)-7-(6-fluoro-1,2,3,4-tetrahydroisoquinoline-2-carbonyl)quinoxalin-2-yl)pentanoic acid] returned a Ki of 2.1 to 20 nM.

The compound `CC1(C)c2ccc(F)cc2CN1C(=O)c1ccc2nc(-c3ccc(Cl)cc3)c(CCCCC(=O)O)nc2c1` [compound 558, 5-(3-(4-chlorophenyl)-7-(5-fluoro-1,1-dimethylisoindoline-2-carbonyl)quinoxalin-2-yl)pentanoic acid] yielded a Ki of 2.1 to 20 nM.

`O=C(O)CCCCc1nc2cc(C(=O)N3CC[C@H](c4ccc(F)cc4)C3)ccc2nc1-c1ccc(Cl)cc1` [compound 559, (R)-5-(3-(4-chlorophenyl)-7-(3-(4-fluorophenyl)pyrrolidine-1-carbonyl)quinoxalin-2-yl)pentanoic acid]: the Ki was in the range of 0.1 to 2 nM.

Compound `O=C(O)CCCCc1nc2cc(C(=O)N3CC[C@@H](c4ccc(F)cc4)C3)ccc2nc1-c1ccc(Cl)cc1` [compound 560, (S)-5-(3-(4-chlorophenyl)-7-(3-(4-fluorophenyl)pyrrolidine-1-carbonyl)quinoxalin-2-yl)pentanoic acid] registered a Ki of 0.1 to 2 nM.

The compound `O=C(O)CCCCc1nc2cc(C(=O)NC3CCCOc4ccccc43)ccc2nc1-c1ccc(Cl)cc1` (stereo not shown) [compound 561, 5-(3-(4-chlorophenyl)-7-((2,3,4,5-tetrahydrobenzo[b]oxepin-5-yl)carbamoyl)quinoxalin-2-yl)pentanoic acid] gave a Ki of 0.1 to 2 nM.

Compound `O=C(O)CCCCc1nc2cc(C(=O)N[C@H]3COc4ccccc43)ccc2nc1-c1ccc(Cl)cc1` [compound 562, (R)-5-(3-(4-chlorophenyl)-7-((2,3-dihydrobenzofuran-3-yl)carbamoyl)quinoxalin-2-yl)pentanoic acid] came in with an inhibitory constant (Ki) of 0.1 to 2 nM.

In turn, `O=C(O)CCCCc1nc2cc(C(=O)N[C@@H]3COc4ccccc43)ccc2nc1-c1ccc(Cl)cc1` [compound 563, (S)-5-(3-(4-chlorophenyl)-7-((2,3-dihydrobenzofuran-3-yl)carbamoyl)quinoxalin-2-yl)pentanoic acid] registered a Ki of 0.1 to 2 nM.

The compound `CC1(C)CC(NC(=O)c2ccc3nc(-c4ccc(Cl)cc4)c(CCCCC(=O)O)nc3c2)c2ccccc2O1` (stereo not shown) [compound 564, 5-(3-(4-chlorophenyl)-7-((2,2-dimethylchroman-4-yl)carbamoyl)quinoxalin-2-yl)pentanoic acid] had a Ki of 2.1 to 20 nM.

With `O=C(O)CCCCc1nc2cc(C(=O)N3CCC4(CCCc5ccccc54)C3)ccc2nc1-c1ccc(Cl)cc1` (stereo not shown) [compound 565, 5-(3-(4-chlorophenyl)-7-(3,4-dihydro-2H-spiro [naphthalene-1,3′-pyrrolidin]-1′-ylcarbonyl)quinoxalin-2-yl)pentanoic acid], the Ki lay within 0.1 to 2 nM.

With `O=C(O)CCCCc1nc2cc(C(=O)NC3C(=O)Nc4ccccc43)ccc2nc1-c1ccc(Cl)cc1` (stereo not shown) [compound 566, 5-(3-(4-chlorophenyl)-7-((2-oxoindolin-3-yl)carbamoyl)quinoxalin-2-yl)pentanoic acid], the Ki lay within 2.1 to 20 nM.

Compound `O=C(O)CCCCc1nc2cc(C(=O)N3CCC4(CC3)NC(=O)Cc3ccccc34)ccc2nc1-c1ccc(Cl)cc1` [compound 567] registered a Ki of 0.1 to 2 nM.

Regarding `O=C(O)CCCCc1nc2cc(C(=O)N3CCC4(CC3)Cc3ccccc3C(=O)N4)ccc2nc1-c1ccc(Cl)cc1` [compound 568, 5-(3-(4-chlorophenyl)-7-(1-oxo-2,4-dihydro-1H-spiro[isoquinoline-3,4′-piperidin]-1′-ylcarbonyl)quinoxalin-2-yl)pentanoic acid], the Ki is 2.1 to 20 nM.
